In publication PMC4837355, “Receptor residence time trumps drug-likeness and oral bioavailability in determining efficacy of complement C5a antagonists” (Scientific Reports, 2016):
“And” between values parts separate entries of the source, which are not always exact repeats. Identical values can stand only once. Like-named read-outs stand apart in the source and are kept apart here.

What was measured:
[1] = target: T1, C5aR (Homo sapiens, UniProt P21730)
T1 sequence (P21730 1-350): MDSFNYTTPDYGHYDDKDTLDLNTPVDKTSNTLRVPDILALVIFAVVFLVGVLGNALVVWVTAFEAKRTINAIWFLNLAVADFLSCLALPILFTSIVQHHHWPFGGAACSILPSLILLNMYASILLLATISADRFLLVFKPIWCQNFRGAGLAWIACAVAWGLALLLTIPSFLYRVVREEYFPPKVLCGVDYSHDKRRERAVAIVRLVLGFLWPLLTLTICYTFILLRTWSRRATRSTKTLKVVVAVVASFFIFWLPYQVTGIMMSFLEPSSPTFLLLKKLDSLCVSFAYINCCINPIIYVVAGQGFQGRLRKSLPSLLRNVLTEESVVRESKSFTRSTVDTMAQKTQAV
Description: A scintillation proximity assay was used to measure the affinity of C5aR antagonists as described[39]. […] Radioligand binding was then analyzed using a Microbeta scintillation counter (PerkinElmer).

[2] = target: T1, C5aR; assay: Washout residence time, calcium release in antagonist-pretreated HMDM; details: HMDM pre-treated 1 μM antagonist 1 h, washed, challenged with 3 nM C5a
From the text: Intracellular calcium release was induced in HMDM as described[40] and measured using a FLIPR instrument (Molecular Devices).

[3] = target: T1, C5aR; assay: Intracellular calcium release assay in HMDM against rhC5a; details: for IC50: HMDM calcium release
Description: The concentration-response curves for calcium mobilization induced by rhC5a were determined in the presence of escalating concentrations of each of the three antagonists (Fig. 2D–F). […] Error bars are means ± SEM of three independent experiments (n = 3).
Figure 3 Dependence of antagonist potencies (IC50) on C5a concentration in human monocyte-derived macrophages. […] Calculated pIC50 ± SEM and IC50 values for the three C5aR antagonists are summarized in the table versus concentration of C5a. Error bars are means ± SEM of three independent experiments (n = 3).

[4] = Pharmacokinetics and oral bioavailability in rats (LCMS of plasma); details: rat; for F (oral availability): 1 mg/kg i.v. versus 10 mg/kg p.o.
Description: (§1) Paw oedema was induced in male Wistar rats by intraplantar administration of C5aR-PA (350 μg per paw in 100 μL of saline control). Paw swelling (% area change from baseline) was recorded at indicated timepoints. […] C5aR antagonist was administering as an intravenous dose (1 mg/kg via an implanted jugular vein catheter in 50:50 DMSO/saline) versus an oral dose (10 mg/kg in olive oil, via gavage). Plasma was collected at various time points and analyzed. Error bars are means ± SEM normalized to maximal swelling of saline control. *p < 0.05, **p < 0.01 and ***p < 0.001 by student t-test.
(§2) Male Wistar rats (6–8 wk, 250 ± 50 g) were bred at the Animal Resources Centre (Canning Vale, Australia) and housed post-shipment at the Australian Institute for Bioengineering and Nanotechnology (University of Queensland, Brisbane). […] After specific time-points, C5aR-PA was administered into the right hind paw pad (350 μg in 100 μL saline, i.pl). The left hind paw acted as a control, receiving saline only (100 μL). Rear paw thickness and width were measured at 1 h (and periodically over 4 h) post-injection using digital callipers (World Precision Instruments, Sarasota, FL, USA) and swelling was expressed as area (mm^2; thickness × width) and plotted as percentage change from baseline of each individual paw. […] Plasma was collected at various time points (0, 5, 15, 30 min, 1, 2, 3, 4, 6 and 8 h) from the jugular vein catheter and analyzed for antagonist concentrations using LCMS as described. The animal ethics committee of The University of Queensland approved all experiments according to NHMRC guidelines for the care and use of laboratory animals and in accordance with ARRIVE guidelines for reporting experiments involving animals. A total of N animals were used in each experiment as described.
Supplementary Table 1. Pharmacokinetics parameters of C5aR antagonists in
aC5aR antagonist were administered 1 mg/kg i.v. and 10 mg/kg p.o.
Vdss; volume of distribution steady
Cmax; maximal plasma concentration reached
Tmax; time of maximal Cmax
F; Fraction of intact compound absorbed to plasma (oral availability)
Supplementary Table 2. Primer sequences for target genes.

[5] = target: T2, C5aR (Rattus norvegicus, UniProt P97520); assay: C5aR-PA-induced rat paw oedema; type: in vivo, male Wistar rats; details: for Effect on paw swelling after 2 h / Reduction in paw swelling: 30 mg/kg p.o.; for Reduction in paw swelling: at 30 min post-injection of C5aR-PA
T2 construct: C5aR-mediated rat paw oedema was induced by intraplantar administration of 350 μg C5aR-PA per hind paw; from tissue; host or cells: living male Wistar rats (hind paw)
T2 sequence (P97520 1-352): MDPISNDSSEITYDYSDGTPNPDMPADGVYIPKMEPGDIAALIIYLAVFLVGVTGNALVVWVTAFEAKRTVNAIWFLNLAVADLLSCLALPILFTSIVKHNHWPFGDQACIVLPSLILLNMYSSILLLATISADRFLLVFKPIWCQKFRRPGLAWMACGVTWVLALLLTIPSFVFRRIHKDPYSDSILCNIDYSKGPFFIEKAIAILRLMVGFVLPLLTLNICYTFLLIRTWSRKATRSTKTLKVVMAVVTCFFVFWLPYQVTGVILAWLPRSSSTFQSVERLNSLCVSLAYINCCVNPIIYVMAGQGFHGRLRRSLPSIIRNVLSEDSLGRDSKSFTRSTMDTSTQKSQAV
Description: as §1
as §2, with “C5aR-mediated rat paw oedema was induced by intraplantar administration of 350 μg C5aR-PA per hind paw (Supplementary Fig. 5A). […] Male” for “Male”

[6] = target: T1, C5aR; assay: C5a-induced inflammatory gene expression in HMDM (real-time PCR); details: 1 μM antagonist, 10 nM C5a at 16 h post-antagonist treatment
Description: Real-time PCR analyses were conducted to further check the effect of residence time in other assays. […] Gene expression was measured by real-time PCR, normalized against 18S and converted to fold change relative to control.
RNA was extracted from cells using ISOLATE II RNA Kit (Bioline) following manufacturer’s instructions. Real-time PCR was performed using 7900HT real-time with SYBR® Green PCR master mix (Applied Biosystems) and primers. Relative gene expression was normalized against 18S rRNA expression and expressed as fold change against control samples.

[7] = test system: C5aR; set-up: method as in PMID 18595693; details: inhibition of Ca2+ release versus […] rhC5a on U937 cells; read-out: Antagonist IC50; cited from earlier work
[8] = target: T1, C5aR; assay: In vitro migration (chemotaxis) assay of HMDM; type: cell-based; set-up: monocytes were isolated from buffy coats of anonymous donors; endogenous in cells; host or cells: primary human monocyte-derived macrophages (CD14+ monocytes from donor buffy coats, matured with M-CSF); details: antagonist 1 μM, 1 h then washed; 3 nM C5a for 16 h
From the text: Antagonists with a short residence time will be ineffective in this assay, because once the antagonist has dissociated from C5aR, C5a immediately binds and induces migration. […] Chemotactic index is expressed as fold change against control. […] Excess unbound antagonists were washed with serum-free medium and HMDM (0.1 × 10^6 cells/mL) then seeded into 5 μm Transwell inserts (Corning) creating a modified Boyden chamber. […] Migrated cells on the lower side of the membrane were stained with DAPI and counted. The chemotactic index was expressed as fold change versus control.

[9] = test system: C5a-induced neutropenia; set-up: method as in PMID 12384495; details: cited from earlier work
[10] = test system: C5aR; details: inhibition of Ca2+ release versus 0.1nM rhC5a on neutrophils; read-out: Antagonist IC50; cited from earlier work
[11] = in vivo; cited from earlier work
[12] = male, Wistar, plasma, intravenous, 1 mg/kg
[13] = male, Wistar, plasma, iv, 1 mg/kg
[14] = male, Wistar, plasma, oral, 10 mg/kg
[15] = male, Wistar, plasma, po, 10 mg/kg

| Compound | Ki [1] [nM] | IC50 ([3]; IC50, C5a 3 nM) [nM] | IC50 ([3]; IC50, C5a 10 nM) [nM] | IC50 ([3]; IC50, C5a 30 nM) [nM] | IC50 ([3]; IC50, C5a 100 nM) [nM] | IC50 ([3]; IC50, C5a 300 nM) [nM] | IC50 ([3]; pIC50 ± SEM, C5a 1 nM) [nM] | half-life ([4]; male, Wistar, plasma) [min] | Vd [4, 12] [L/kg] | clearance [4, 12] [mL/min/kg] | AUC [4, 13] [ng·h/mL] | Cmax [4, 14] [ng/mL] | AUC [4, 15] [ng·h/mL] | F (oral availability) [4] | Effect on paw swelling after 2 h [5] | Reduction in paw swelling [5] [%] | also measured |
| --- | --- | --- | --- | --- | --- | --- | --- | --- | --- | --- | --- | --- | --- | --- | --- | --- | --- |
| CCc1cccc(CC)c1-c1cc(OC(C)C)c2c(n1)CCCC2Nc1ccccc1CCO (stereo not drawn) [JJ47] | 316 | 10 | 122 | 509 | 632 | 1070 | 1.58 | 43.2 | 3.5 | 41 | 410 | 127 | 501 | 12.2% and ~ 12% | not much different to W54011 | 15 | Half-life t1/2 ± SEM (residence time on C5aR) [2]: 36 ± 12 min; Kb [3]: 5.01 nM; Antagonist mechanism ([3]; C5a concentration-response curves with escalating antagonist, HMDM): surmountable antagonists; IC50 ([3]; IC50, C5a 1 nM): 2 nM; Schild plot slope ([3]; against rhC5a, calcium release, HMDM): 0.94; Block of C5a-mediated expression of TNF, IL1B, CCL3 and PTGS2 [6]: did not; IC50 [7]: 7 nM; Block of C5a-induced migration [8]: not effective antagonists |
| COc1ccc2c(c1)C(C(=O)N(Cc1ccc(N(C)C)cc1)c1ccc(C(C)C)cc1)CCC2 (stereo not drawn) [W54011] | 79.4 | 9 | 24 | 55 | 350 | 1460 | 3.98 | 124 | 18.3 | 82.8 | 212 | 484 | 1570 | ~ 74% | no longer effective | 35 | Doses blocking C5a-induced gerbil neutropenia [9]: 3 to 30 mg/kg; IC50 ([3]; pIC50 ± SEM, C5a 3 nM): 7.94 nM; bioavailability [4, 15]: 74.3%; Block of C5aR-PA-induced paw swelling ([5]; 5 mg/kg per oral): did not block; Effect on C5aR-PA-induced paw swelling ([5]; 10 mg/kg p.o.): did not have much effect; IC50 [10]: 3 nM |
| CC(=O)N[C@@H](Cc1ccccc1)C(=O)N[C@H]1CCCNC(=O)[C@H](CCCNC(=N)N)NC(=O)[C@H](Cc2c[nH]c3ccccc23)NC(=O)[C@@H](CC2CCCCC2)NC(=O)[C@@H]2CCCN2C1=O [3D53, Ac-Phe-[Orn-Pro-D-Cha-Trp-Arg]] | – | – | – | – | – | – | – | – | – | – | – | – | – | – | – | – | Safety and tolerability [11]: safe and well tolerated; Tmax ([4]; male, Wistar, in vivo, po): 50 min; Cmax ([4]; in vivo): 17.5 ng/mL; Vd ([4]; in vivo): 4.1 L/kg; clearance ([4]; in vivo): 52.1 mL/min/kg; half-life ([4]; in vivo): 21.6 min; AUC ([4]; in vivo, iv, 1 mg/kg): 323 ng·h/mL; AUC ([4]; in vivo, po, 10 mg/kg): 76.6 ng·h/mL |
